The values below are quoted from earlier work in US8222294B2, “Combinations of an anti emetic agent and an enkephalinase inhibitor” (Bioproject, priority 2004, dated 2012).

In this series the test system is cholera toxins. Particulars: cited from earlier work.

With `Cc1nccn1CC1CCc2c(c3ccccc3n2C)C1=O` (stereo not drawn) [ondansetron], the antisecretory activity entry was “not”.

For `CC(=O)SC[C@H](Cc1ccccc1)C(=O)NCC(=O)OCc1ccccc1` [dexecadotril], the antisecretory activity entry is “active”.

On to `CC(=O)SCC(Cc1ccccc1)C(=O)NCC(=O)OCc1ccccc1` (stereo not drawn) [racecadotril], for which the antisecretory activity result is “active”.
